Data on four compounds can be found in patent EP4342530A1, “SORTILIN MODULATORS” (Insusense ApS, priority 2022, dated 2024).

One series concerns the target T1, Sortilin (Mus musculus, UniProt Q6PHU5).
T1 construct: purchased Bio-Techne Ltd 2934-ST-050
T1 sequence (Q6PHU5 76-753 limits assumed): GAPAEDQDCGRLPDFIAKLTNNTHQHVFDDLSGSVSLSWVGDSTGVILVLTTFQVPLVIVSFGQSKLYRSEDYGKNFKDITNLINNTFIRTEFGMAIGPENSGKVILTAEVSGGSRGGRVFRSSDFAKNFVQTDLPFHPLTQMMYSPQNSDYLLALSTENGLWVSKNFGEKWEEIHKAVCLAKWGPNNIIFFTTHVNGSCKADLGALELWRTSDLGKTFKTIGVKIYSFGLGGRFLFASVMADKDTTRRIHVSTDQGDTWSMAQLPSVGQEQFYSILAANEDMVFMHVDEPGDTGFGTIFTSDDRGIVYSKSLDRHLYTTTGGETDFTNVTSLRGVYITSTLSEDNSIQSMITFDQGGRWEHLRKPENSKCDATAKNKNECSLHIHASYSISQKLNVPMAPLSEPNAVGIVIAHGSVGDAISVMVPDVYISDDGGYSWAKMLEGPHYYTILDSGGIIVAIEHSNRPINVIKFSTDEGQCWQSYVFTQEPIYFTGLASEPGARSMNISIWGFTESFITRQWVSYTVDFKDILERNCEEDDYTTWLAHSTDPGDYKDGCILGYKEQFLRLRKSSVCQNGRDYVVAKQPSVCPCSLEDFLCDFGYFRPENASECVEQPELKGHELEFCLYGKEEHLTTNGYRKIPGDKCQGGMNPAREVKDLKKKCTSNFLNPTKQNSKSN
Briefly: Creoptix (GCI) binding kinetics, mouse Sortilin. To be noted: Species Mouse, screened at 1 µM, 25 degrees Celsius. The method, then:
Creoptix (GCI) method - using SEQ ID NO.4 (Murine sortillin)
A protein, bound to a surface, is bathed in a solution containing potential ligands giving rise to binding kinetics to generate Kon and Koff rates, as well as a Kd.
All buffers described were filtered using a 0.2µm filter (Product number: 10300461, Nalgene) and degassed for 15 minutes prior to use.
A flow cell temperature of 25 degrees Celsius was used throughout the experiment.
A 4PCH chip was conditioned across all flow cells using 0.2 X concentration running buffer (running buffer composition: 1XHBS-N, pH 7.4, 3.4 mM EDTA, 1% DMSO) using pre-set conditioning wizard (WAVE control software) injecting: 0.1 M borate, 1 M NaCl (pH 9) followed by three start-up injections of 0.2 X running buffer.
A buffer exchange was performed and 1x running buffer (1XHBS-N, pH 7.4, 3.4 mM EDTA, 1% DMSO) used during the immobilisation procedure: An initial injection of EDC/NHS (mixed in 1:1 ratio) was performed across all 4-flow cells to activate the surface for amine coupling of ligands.
Recombinant Sortilin aliquots were thawed quickly by hand and centrifuged at 13,300 rpm for 10 minutes. A 10 µg/ml protein solution was then made in pH 5.0 acetate and injected once for 20 minutes over flow-cells 2, 3 and 4 for human, human (flow cells 2 & 3), and mouse Sortilin respectively followed by a 60 second dissociation period.
A final 7-minute passivation injection of 50 mM tris was used across all flow cells.
A flow rate of 10 µl/min was used for all conditioning and immobilisation cycles.
Compounds were screened at 1 µM using the in-built 'intermediate binders' settings: 100 ul/min, 45 s baseline, 25 s association, 300 s dissociation, with blanks every 5th sample and a DMSO correction (1.5 % DMSO at the start and end of the experiment as well as every 20 cycles. An acquisition rate of 10 Hz was used throughout the experiment.
Compounds were screened at a final assay concentration of 1 µM and a final DMSO concentration was 1 %. To achieve this, compounds were diluted in DMSO from 10 mM stocks to 100 µM (100 x final assay concentration) then diluted 1:100 in running buffer which contained no DMSO to establish a final assay concentration of compound of 1 µM and a final DMSO concentration of 1 % [DMSO].
Compounds and DMSO were mixed by plate shaking at 1000 rpm for 60 seconds using a Bioshake instrument.
A flow rate of 100 µl/min was used throughout the experiment.
Data was evaluated using the RAPID kinetic analysis tool in the GCI WAVE_control software with data fitted using a standard 1:1 kinetic BioModel.

Series [1] is described as follows: Plasma protein binding by rapid equilibrium dialysis, dog plasma. The class given is in vitro ADME. As for the experimental part:
Plasma protein binding and brain homogenate binding for study compounds in mouse, dog, and rat by rapid equilibrium dialysis
In practice, unbound fractions in plasma and brain tissue were assessed using rapid equilibrium dialysis in vitro. Separately a pharmacokinetic study was run in vivo whereby a dose of the compound of interest was given at T=0 hours and at subsequent timepoints (eg 0.5, 1 and 4 hours) plasma and separately brain samples were analysed for total concentration of the compound of interest. These total concentrations could then be adjusted with the unbound fraction to give the unbound concentrations in the plasma and brain.
The test compounds were incubated in plasma and brain homogenate from the relevant species at 37 °C in RED device with inserts (8K MWCO, Thermo scientific) for 4 hours at 5 µM in triplicates. 350 µL of 150 mM phosphate buffered saline (PBS, pH 7.4) was used as the receiver side solutions. […] After 10-minute centrifugation at 13 200 rpm, the sample supernatants were analysed with an LC-MS/MS, to obtain the unbound fraction of the test compound (Fub). The unbound fraction was calculated from the peak area ratios obtained for each matrix: Fub = CPBS /Cplasma; [formula] where CPBS and Cplasma are the analyte concentrations in PBS (receiver) and plasma (donor), respectively. […]
On the technique in general: In equilibrium dialysis only unbound substance equilibrates across the membrane.

A short description of series [2]: Blood-brain-barrier permeability in mice after IV administration. Particulars: male, CD1 (ICR), mouse, intravenous, 3 mg/kg.
Experimental: The compound is administered to the animal in a suitable vehicle at T=0 hours. At 0.5 hours post administration plasma and separately brain are removed, prepared and analysed for total compound concentration.
Temperature: 45 °C Injection Volume: 1.5 µl for brain, 4 µl for plasma Ion Source: ESI+, SRM detection
The unbound partition coefficient (Kpuu) was determined as a ratio between the free compound concentrations in plasma and brain: Kpuu = (Cub,brain)/(Cub,plasma) [formula]
Where Cu,brain = unbound concentration in brain (C × Fub, brain); wherein • C = concentration at steady state; and • Cub,plasma = unbound concentration in plasma (C × Fub).

For orientation: Kd means the free concentration of one partner at which half of the binding sites on the other are occupied at equilibrium, for simple one-to-one binding. As a reminder, the Kp is tissue or fluid exposure divided by exposure in the circulation. Consider `CC(C)(C)CC[C@H](NCc1ccc2c(c1)COCC2)C(=O)O` [Example 3, (S)-2-((isochroman-7-ylmethyl)amino)-5,5-dimethylhexanoic acid], for which the Kd at Sortilin (Form of Compound Free acid) is 65 nM. Moreover, the “%Fuplasma” value in series [1] (dog plasma, as used for the Kpuu calculation) is given as 55%. Also, the fraction unbound at 4 h, 5 µM in series [1] (pH 7.4, Dog plasma, 5 µM, 4 hours, 37 °C, read-out: Unbound (Fu, %)) was determined as 0.555. Besides, the concentration at 0.5 h in series [2] (brain) was 61.2 ng/g; in series [2] (plasma) it was 292 ng/mL. Besides, in series [2] (brain/plasma), the partition ratio (Kp) at 0.5 h came to 0.21.
On to `C[C@@H](N[C@@H](CCC(C)(C)C)C(=O)O)c1ccc2c(c1)CCCO2` [Example 52], for which the Kd on Sortilin (Form of Compound Mesylate salt) stood at 129 nM.
Regarding `C[C@H](N[C@@H](CCC(C)(C)C)C(=O)O)c1ccc2c(c1)CCCO2` [Example 50], the Kd at Sortilin (Form of Compound Free acid) and on Sortilin (Form of Compound Mesylate salt) was 258 nM each time.
For `C[C@@H](N[C@@H](CCC(C)(C)C)C(=O)O)c1ccc2c(c1)OCCC2` [Example 9], the equilibrium dissociation constant (Kd) at Sortilin (Form of Compound Free acid) was 60 nM; on Sortilin (Form of Compound Mesylate salt), 59.5 nM.
